Blank lines part the entries; values can stand above or below the molecule they belong to.
Key:
[1] = tested on: SKBR3-LR, HCC1954-LR, T47D and MDA-MB-361 cells; test: Effects of NmU siRNAs with HER-targeted drugs on proliferation (acid phosphatase); format: cell-based
Experimental: (§1) Two siRNAs, designated NmU-1 (SEQ ID NO: 3; 5′-[…]-3′) and NmU-2 (SEQ ID NO: 4; 5′-[…]-3′) (s225456 and s21351, respectively, Ambion, UK), (30 nM) were used to target NmU. Scrambled siRNA (SCR) (AM4611, Ambion, UK) was used as negative control. Transient transfections were harvested 72 hours post-transfection for RNA and protein extraction. NmU full-length cDNA was sub-cloned from pOTB7 (clone ID3502168, Open Biosystems, Ireland) by PCR into pcDNA 3.1(+) zeo-plasmid vector (Invitrogen, Ireland). The construct was verified by DNA sequencing. Mock controls used were of pcDNA3.1(+) plasmid lacking NmU cDNA. Lipofectamine 2000 (Invitrogen, Ireland) was used for transfection following the manufacturer's instructions. Stable transfectants were established by selecting with zeocin (50 μg/ml and 300 μg/ml for HCC1954 and SKBR3 transfected cells, respectively; based on initial assessment of the toxicity of zeocin on these cells) (Invitrogen, Ireland).
(§2) To investigate if knock-down of NmU affected response to HER-targeting, cell lines with acquired Lapatinib-resistance (SKBR3-LR, HCC1954-LR) and innately unresponsive (MDA-MB-361, T47D) were assessed. […] Similarly, fixed concentrations of Neratinib (1 μM) and Afatinib (0.5 μM) were used. These were cultured for 72 hours and subsequently assessed using acid phosphate analysis.

HCC1954 cells [2] = test: Resistance to HER-targeted drugs after exogenous NmU treatment; format: cell-based; details: HCC1954, exogenous NmU (NmU-25) 48 hours; all drugs
Experimental: (§3) To assess if functional NmU receptors are expressed on cells, SKBR3 and HCC1954, (1×10^6 cells) were seeded in 25 cm^2 flask, allowed attach overnight and subsequently treated with 1 μM of NmU-25 (Bachem, Switzerland) for 24-48 hours.

[3] = tested on: NmU mRNA in HCC1954 cells; test: Short-term drug exposure, qPCR of NmU mRNA in conditioned medium and cells; format: cell-based; details: 48 hours; for induced NmU mRNA in CM / induced NmU mRNA in cells: HCC1954, 0.5 μM, vs untreated control
Experimental: (§4) Conditioned medium (CM) was collected, centrifuged and filtered, as previously described (1-2), prior to NmU mRNA and protein analysis.
(§5) Total RNA was isolated from cell lines and CM using TriReagent (Sigma-Aldrich). In order to remove any potential contaminating genomic DNA, RNA was treated with DNase enzymes and minus reverse transcriptase enzyme controls verified no DNA/pseudogene contamination of starting material. cDNA was prepared from 500ng cell-derived and 4 μl CM-derived total RNA, respectively.

T47D = details: cited from earlier work
MDA-MB-361 cells = test: Proliferation, previously determined IC50; format: cell-based; details: Homo sapiens; MDA-MB-361, previously determined; read-out: approximate IC50 concentration
Experimental: as §2

T47D cells = test: Proliferation, previously determined IC50; format: cell-based; details: Homo sapiens, read-out: approximate IC50 concentration
Experimental: as §2

SKBR3 cells = details: cited from earlier work
HCC1954 cells [4] = details: cited from earlier work
MDA-MB-361 = details: cited from earlier work
SKBR3-NmU cells = test: Proliferation assay, NmU cDNA- versus mock-transfected cells; format: cell-based; details: SKBR3-NmU vs SKBR3-mock
Experimental: as §1
(§6) Cells with acquired-resistance compared to aged-parent cells and NmU cDNA-versus mock-transfected cells (HCC1954 variants, 2×10^3 cells/well; SKBR3 variants, 5×10^3 cells/well) were seeded for 24 hours prior to drug additions. […] Five days later, acid phosphatase assay was performed as previously detailed (3).

HCC1954-NmU cells = test: as above; format: cell-based; details: HCC1954-NmU vs HCC1954-mock
Experimental: as §1, §6

NmU mRNA in SKBR3 cells = test: Short-term drug exposure, qPCR of NmU mRNA in conditioned medium and cells; format: cell-based; details: SKBR3, 1 μM, 48 hours, vs untreated control CM
Experimental: as §4, §5

SKBR3-Ag cells = test: Proliferation assay (acid phosphatase), aged parent SKBR3; format: cell-based; details: Homo sapiens, SK-BR-3, 120 h, read-out: concentration that inhibits 50% of proliferation (IC50), five days
Experimental: (§7) SKBR3, HCC1954, MDA-MB-361, T47D cells, obtained from ATCC, were cultured in RPMI-1640 (Sigma-Aldrich) with 10% FCS (PAA) and 1% L-glutamine. […] Lapatinib-resistant SKBR3 and HCC1954 cells (SKBR3-LR, HCC1954-LR) were established by continuously exposing cells to Lapatinib, starting with 5 nM and incrementally increasing to 250 nM over 6 months. Neratinib-resistant SKBR3 and HCC1954 cells (SKBR3-NR, HCC1954-NR) resulted from continuously exposing cells to Neratinib, starting with 10 nM and incrementally increasing to 250 nM over 6 months.
as §6

HCC1954-Ag cells = test: Proliferation assay (acid phosphatase), aged parent HCC1954; format: cell-based; details: Homo sapiens, 120 h, read-out: concentration that inhibits 50% of proliferation (IC50), five days
Experimental: as §7, §6

HCC1954-LR cells = test: Proliferation assay (acid phosphatase), Lapatinib-resistant HCC1954; format: cell-based
Experimental: as §7, §6

SKBR3-LR cells = test: Proliferation assay (acid phosphatase), Lapatinib-resistant SKBR3; format: cell-based
Experimental: as §7, §6

EGFR = test: Exogenous NmU treatment, EGFR expression; format: cell-based; details: 1 μM, 24-48 hours
Experimental: as §3
(§8) Total cellular proteins (30-40 μg, depending on the specific protein's abundance; but constant for any given protein) were resolved on 6-10% SDS-PAGE and transferred to PVDF membranes (Millipore, Ireland). Primary antibodies used included EGFR (Neomarker); HER2 (Calbiochem); Akt, p-Akt (Cell Signalling); NmU-R1 (Sigma-Aldrich); NmU-R2 (LifeSpan Biosciences); β-actin (Sigma-Aldrich). Membranes were incubated with appropriate horseradish peroxidase-conjugated secondary antibodies (Cell Signalling) and proteins were visualized by chemiluminescence (Millipore). Detection was performed with a Chemidoc exposure system (Bio-Rad Laboratories). ELISA kit for NmU (Peninsula Laboratories, US), HER2 (Calbiochem, US), p-HER2, EGFR, p-EGFR (R&D Systems, US) were used according to the manufacturer's instructions.

HER2 = test: Exogenous NmU treatment, HER2 expression; format: cell-based; details: 1 μM, 24-48 hours; SKBR3 and HCC1954 cells
Experimental: as §3, §8

Molecule: CN(C)C/C=C/C(=O)Nc1cc2c(Nc3ccc(F)c(Cl)c3)ncnc2cc1O[C@H]1CCOC1 [Afatinib]
inhibition at 0.5 µM ([1]; 0.5 μM, 72 hours, NmU-1/NmU-2 siRNA vs SCR, range over cell lines and siRNAs, read-out: further inhibition of growth with NmU knock-down): 18 to 47%
level of resistance induced by exogenous NmU (HCC1954 cells [2]): 1.1 fold
induced NmU mRNA in CM [3]: 3.3±0.49 fold
induced NmU mRNA in cells [3]: 3±0.38 fold

IC50 (MDA-MB-361 cells): ~1000 nM
IC50 (T47D cells): ~5000 nM
IC50 (SKBR3-Ag cells): 90 nM
IC50 (HCC1954-Ag cells): 300 nM
IC50 (HCC1954-LR cells; Homo sapiens, HCC1954, 120 h, read-out: concentration that inhibits 50% of proliferation (IC50), HCC1954-LR, five days): ~5000 nM
IC50 (SKBR3-LR cells; Homo sapiens, SK-BR-3, 120 h, read-out: concentration that inhibits 50% of proliferation (IC50), SKBR3-LR, five days): ~3000 nM
Molecule: CS(=O)(=O)CCNCc1ccc(-c2ccc3ncnc(Nc4ccc(OCc5cccc(F)c5)c(Cl)c4)c3c2)o1 [Lapatinib]
innate sensitivity/resistance (T47D): unresponsive
further inhibition of proliferation with NmU knock-down ([1]; drug at IC50 concentration, 72 hours, NmU-1/NmU-2 siRNA vs SCR, range over cell lines and siRNAs): 12-49%
level of resistance induced by exogenous NmU (HCC1954 cells [2]): 1.1 fold
innate sensitivity/resistance (SKBR3 cells): sensitive
innate sensitivity/resistance (HCC1954 cells [4]): sensitive
innate sensitivity/resistance (MDA-MB-361): resistant
anti-proliferative effects in NmU-transfected compared to mock-transfected cells (SKBR3-NmU cells): significantly compromised
anti-proliferative effects in NmU-transfected compared to mock-transfected cells (HCC1954-NmU cells): significantly compromised
levels of NmU mRNA detectable in CM (NmU mRNA in SKBR3 cells): significantly higher
levels of NmU mRNA detectable in CM ([3]; HCC1954, 1 μM, vs untreated control CM): significantly higher
fold resistance (HCC1954-LR cells; HCC1954-LR compared to HCC1954-Ag): 19.1±2.8 fold
fold resistance (SKBR3-LR cells; SKBR3-LR in relation to SKBR3-Ag): 29.8±2.2 fold

Molecule: CCOc1cc2ncc(C#N)c(Nc3ccc(OCc4ccccn4)c(Cl)c3)c2cc1NC(=O)/C=C/CN(C)C [Neratinib]
inhibition at 1 µM ([1]; 72 h, read-out: further inhibition of growth with NmU knock-down): 19 to 58%
level of resistance induced by exogenous NmU (HCC1954 cells [2]): 1.1 fold
anti-proliferative effects in NmU-transfected compared to mock-transfected cells (SKBR3-NmU cells): significantly compromised
anti-proliferative effects in NmU-transfected compared to mock-transfected cells (HCC1954-NmU cells): significantly compromised
induced NmU mRNA in CM [3]: 3.6±1 fold
induced NmU mRNA in cells [3]: 3.6±0.54 fold

Molecule: NmU-25: exogenous NeuromedinU 25 amino acid active peptide (Bachem) (FRVDEEFQSPFASQSRGYFLFRPRN)
expression of EGFR protein (EGFR; SKBR3 and HCC1954 cells): induced expression
pEGFR (EGFR; SKBR3 cells): induced expression
expression of HER2 protein (HER2): induced expression

From US20140328840A1, “MARKER AND TARGET FOR RESPONSIVENESS AND RESISTANCE TO CANCER AGENTS” (The Provost, Fellows, Foundation Scholars, and the Other …, priority 2011, published 2014)
